According to US20080182899A1, “ASSOCIATION OF BETA3 RECEPTOR AGONIST AND MONOAMINE REUPTAKE INHIBITORS, PHARMACEUTICAL COMPOSITION AND THERAPEUTIC USE THEREOF” (SANOFI-AVENTIS, priority 2005, published 2008):

System: mice stressed by MCS
Assay: forced swimming test after moderate chronic stress (MCS) protocol
Format: in vivo, mice (male BALB/c ByJIco)
Conditions: β3 agonist 1 mg/kg; for Percentage of time (immobile time of stressed animals relative to the unstressed animals): forced swimming test on day 50, 1 intraperitoneal injection per day from day 15 to day 50, fluoxetine hydrochloride 3 mg/kg; for Immobile time: forced swimming test on day 50, measured over 5 minutes, 1 intraperitoneal injection per day from day 15 to day 50, fluoxetine hydrochloride 3 mg/kg; for effect of repeated administration on immobile time (in words): forced swimming test on day 50, repeated intraperitoneal administration day 15 to day 50, fluoxetine 3 mg/kg
Procedure: The antidepressant effects of the combination according to the invention were evaluated in mice using the moderate chronic stress (MCS) protocol. This test was developed on rats by Willner (P. Willner, Neuroscience and Biobehavioral Review, 1992, 16, 525-34) and adapted to mice by Kopp et al. (C. Kopp, Behavioral Pharmacology, 1999, 10, 73-83).
Similarities between the depressive state in man and the effect of moderate chronic stress in mice were established. The emotivity of mice stressed by MCS was evaluated in the forced swimming test.
The MCS is performed in the following manner:
Male BALB/c ByJIco mice (Iffa Credo Lyons, France) 8 weeks old are placed in individual experiment cages (26×20×14 cm), provided with food and water ad libitum, at a controlled temperature of 22±1° C.
In the context of the protocol, the mice are subjected to a series of stresses such as forced bathing, food and/or water deprivation, housing in cages containing wet sawdust, permutation of the day/night cycle, maintenance under constant illumination or in darkness, each of these restrictions possibly lasting from 2 hours to 24 hours.
A first group of control animals is not subjected to the MCS (group 1—unstressed).
The animals subjected to the MCS are divided into 4 groups on day 15: • Group 2 (saline stress) consists of control animals receiving one intraperitoneal injection per day of physiological fluid. • Group 3 (fluoxetine stress) receives 1 intraperitoneal injection per day of fluoxetine hydrochloride at a rate of 3 mg/kg. • Group 4 (β3 agonist stress) receives 1 intraperitoneal injection per day of ethyl [(7S)-7(2R)-2-(3-chlorophenyl)-2-hydroxyethylamino-5,6,7,8-tetrahydronaphthalen-2-yloxy]acetate hydrochloride at a rate of 1 mg/kg. • Group 5 (fluoxetine+β3 agonist stress) receives 1 intraperitoneal injection per day of a solution containing fluoxetine hydrochloride (3 mg/kg) and ethyl [(7S)-7(2R)-2-(3-chlorophenyl)-2-hydroxyethylamino-5,6,7,8-tetrahydro-naphthalen-2-yloxy]acetate hydrochloride (1 mg/kg).
The injections are performed from day 15 to day 50.
On day 50, each group is subjected to the forced swimming test. […] The immobile time is measured over a period of 5 minutes.

Structure (SMILES) | Percentage of time (immobile time of stressed animals relative to the unstressed animals) | Immobile time [s] | effect of repeated administration on immobile time (in words)
CNCCC(Oc1ccc(C(F)(F)F)cc1)c1ccccc1 (stereo not drawn) [fluoxetine] | +21.5% | 178.4 | does not significantly modify this parameter
CCOC(=O)COc1ccc2c(c1)C[C@@H](NC[C@H](O)c1cccc(Cl)c1)CC2.Cl [β3 agonist, ethyl [(7S)-7(2R)-2-(3-chlorophenyl)-2-hydroxyethylamino-5,6,7,8-tetrahydronaphthalen-2-yloxy]acetate hydrochloride] | +25.1% | 182.0 | does not significantly modify this parameter
